The source of these data is patent US11865124B2, “Vitamin c and doxycycline: a synthetic lethal combination therapy for eradicating cancer stem cells (CSCS)” (priority 2017, dated 2024).

Assay [1] relates to MCF7-DoxyR cells. Briefly: Mammosphere formation assay (CSC propagation) in doxycycline-resistant MCF7 cells. The format is cell-based. From the text:
To test this hypothesis, the inventors generated a cancer cell sub-population metabolically synchronized toward a glycolytic phenotype by chronically treating MCF7 cells with the FDA-approved antibiotic doxycycline, a mitochondrial inhibitor. Briefly, MCF7 cells were obtained from ATCC and cultured in DMEM (Sigma Aldrich). MCF7 cells resistant to doxycycline (MCF7-DoxyR cells) were selected by a stepwise exposure to increasing concentrations of doxycycline. […] It should be appreciated that other cancer cell lines and other mitochondrial (oxidation) inhibitors may be used.
To more directly assess functional CSC activity, mammosphere formation assays may be used. Briefly, a single cell suspension of MCF7 or MCF7 DoxyR cells may be prepared using enzymatic (1× Trypsin-EDTA, Sigma Aldrich), and manual disaggregation (25-gauge needle). Cells may be plated at a density of 500 cells/cm2 in mammosphere medium (DMEM-F12/B27/20-ng/ml EGF/PenStrep) in nonadherent conditions, in culture dishes coated with (2-hydroxyethylmethacrylate) (poly-HEMA, Sigma), in the presence of Atovaquone (FIG. 6A) or Chloroquine (FIG. 6B). Cells may be grown for 5 days and maintained in a humidified incubator at 37° C. at an atmospheric pressure in 5% (v/v) carbon dioxide/air. After 5 days for culture, spheres larger than 50 μm may be counted using an eye piece graticule, and the percentage of cells plated which formed spheres may be calculated. Mammosphere assays may be performed in triplicate and repeated three times independently.
The present approach further involves methods of testing the efficacy of glycolysis inhibitors on CSC propagation using other clinically-approved drugs that functionally behave as OXPHOS inhibitors (Irinotecan, Sorafenib, Niclosamide) or glycolysis inhibitors (Stiripentol) on mammosphere formation. Briefly, MCF7 DoxyR cells were cultured in low attachment plates and treated with Vehicle or increasing concentrations of the lactate dehydrogenase (LDH) inhibitor Stiripentol (2 μM to 100 μM) (FIG. 11A) or the OXPHOS inhibitors Irinotecan (500 nM to 80 μM) (FIG. 11B), Sorafenib (500 nM to 40 μM) (FIG. 11C), Berberine Chloride (500 nM to 10 μM) (FIG. 11D) and Niclosamide (FIG. 11E-F) for 5 days before counting. Independent experiments were performed in triplicate.

In assay [2] the test system is MCF7-DoxyR cells. Briefly: Cell migration, wound healing scratch assay. The class given is cell-based. As to conditions: MCF7-DoxyR cells (chronic doxycycline) vs MCF7 cells, 24 h. From the text:
(§1) To test this hypothesis, the inventors generated a cancer cell sub-population metabolically synchronized toward a glycolytic phenotype by chronically treating MCF7 cells with the FDA-approved antibiotic doxycycline, a mitochondrial inhibitor. Briefly, MCF7 cells were obtained from ATCC and cultured in DMEM (Sigma Aldrich). MCF7 cells resistant to doxycycline (MCF7-DoxyR cells) were selected by a stepwise exposure to increasing concentrations of doxycycline. Specifically, MCF7 cells were initially exposed to 12.5 μM doxycycline, followed by 3 weeks of treatment with 25 μM doxycycline, followed by 3 weeks of treatment with 50 μM doxycycline. The doxycycline-resistant MCF7 cells were then routinely maintained in regular medium supplemented with 25 μM Doxycycline. It should be appreciated that other cancer cell lines and other mitochondrial (oxidation) inhibitors may be used.
The present approach further involves methods of analyzing the effects of chronic treatment on functionality by considering cell migration. […] The migration assay was evaluated using Incucyte Zoom (Essen Bioscience). The rate of migration was measured by quantifying the % of wound closure area, determined using the software ImageJ, according to the formula: % of wound closure=[(At=0 h−At=Δ h)/At=0 h]×100%. […] Statistical significance was measured using the t-test. […]

Assay [3] concerns MCF7-DoxyR cells. Description: Proliferation assay by EdU incorporation (flow cytometry). The conditions noted are these: MCF7-DoxyR cells (chronic doxycycline) vs MCF7 cells. The class given is cell-based.
Source text: as §1, with “The doxycycline-resistant MCF7 cells were then routinely maintained in regular medium supplemented with 25 μM Doxycycline. It should be appreciated that other cancer cell lines and other mitochondrial (oxidation) inhibitors may be used.” left out
To determine functional effects on doxycycline on CSC propagation, proliferation may be measured by determining relative levels of EdU incorporation (EdU refers to the alkyne-containing thymidine analog (5-ethynyl-2′-deoxyuridine) which is incorporated into DNA during active DNA synthesis). […] EdU was detected after permeabilization by staining cells with Click-iT Plus reaction cocktail containing the Fluorescent dye picolylazide for 30 min at room temperature. Samples were then washed and analyzed using flow cytometer. […] Data were analyzed using FlowJo software. FIGS. 7A-B show MCF7-DoxyR cells have a reduced ability to proliferate by more than 60%, as measured using EdU-incorporation.
In general terms: Flow cytometry measures light scatter and fluorescence of single cells or particles in a stream.

Assay [4] has as its system MCF7 CSCs. As to conditions: control MCF7 CSCs; Bonuccelli et al, Oncotarget 2017; read-out: IC-50, MCF7 CSC propagation; cited from earlier work.
Setting [5] is: Homo sapiens, mammosphere formation, MCF7 DoxyR cells, read-out: IC-50, DoxyR CSC propagation.
The mark [6] stands for this setting: Homo sapiens, 120 h, mammosphere formation, MCF7 DoxyR cells, 5 days, read-out: IC-50, DoxyR CSC propagation.
[7] abbreviates: Homo sapiens, MCF7, 120 h, read-out: inhibition of CSC propagation of MCF7-DoxyR cells.

Structures are written as SMILES. Where two headings read alike, the source gives them in different places.

In turn, `O=C1C(O)=C([C@H]2CC[C@H](c3ccc(Cl)cc3)CC2)C(=O)c2ccccc21` [Atovaquone] returned an inhibition at 1 µM in assay [1] (Homo sapiens, MCF7, 120 h, 1 μM Atovaquone, mammospheres, 5 days) above 85%. `C[C@H]1c2cccc(O)c2C(=O)C2=C(O)[C@]3(O)C(=O)C(C(N)=O)=C(O)[C@@H](N(C)C)[C@@H]3[C@@H](O)[C@@H]21` [doxycycline]: the “reduction in cell migration (scratch assay)” value in assay [2] is given as “greater than 50%”. Also, the “reduction in ability to proliferate (EdU-incorporation)” value in assay [3] was “more than 60%”. On to `COc1ccc2cc3[n+](cc2c1OC)CCc1cc2c(cc1-3)OCO2` [Berberine, Berberine Chloride], for which the IC50 in assay [1] (setting [5]) was around 1 µM. Consider `O=CC[C@@H](O)[C@H](O)[C@H](O)CO` [2-DG, 2-deoxy-glucose], for which, in assay [1] (Homo sapiens, MCF7, 10 mM 2-DG, read-out: inhibition of propagation of DoxyR CSCs), the inhibition at 10000 µM was above 90%. Besides, in assay [1] (Homo sapiens, MCF7, 20 mM 2-DG, read-out: inhibition of propagation of DoxyR CSCs), the inhibition at 20000 µM was found to be 100%. Turning to `CNC(=O)c1cc(Oc2ccc(NC(=O)Nc3ccc(Cl)c(C(F)(F)F)c3)cc2)ccn1` [Sorafenib], in assay [1] (Homo sapiens, MCF7, read-out: IC-50, DoxyR CSC propagation), the IC50 lay in the range of 0.5 to 1 µM. In the case of `O=C1O[C@H]([C@@H](O)CO)C(O)=C1O` [Vitamin C, ascorbic acid], in assay [1] (Homo sapiens, MCF7, 250 μM Vitamin C), the inhibition at 250 µM is above 90%. Moreover, in assay [1] (Homo sapiens, MCF7, 500 μM Vitamin C), the inhibition at 500 µM came out at 100%. For the same compound, the IC50 in assay [1] (setting [5]) is 100 to 250 µM; in assay [4], 1000 µM. The “fold more sensitive, DoxyR CSCs vs control MCF7 CSCs” value in assay [1] (ratio of IC-50 in MCF7 CSCs to DoxyR CSCs, identical assay conditions) is 4-10 fold. Consider `CC(C)(C)C(O)/C=C/c1ccc2c(c1)OCO2` (centres unmarked) [Stiripentol], for which the IC50 in assay [1] (setting [5]) fell in the range of 10 to 50 µM.

Turning to `O=C(Nc1ccc([N+](=O)[O-])cc1Cl)c1cc(Cl)ccc1O` [Niclosamide], in assay [1] (setting [6]), the IC50 was around 0.1 µM.

Regarding `CCc1c2c(nc3ccc(OC(=O)N4CCC(N5CCCCC5)CC4)cc13)-c1cc3c(c(=O)n1C2)COC(=O)[C@]3(O)CC` [Irinotecan], the IC50 in assay [1] (setting [6]) is around 0.5 µM.

`CCN(CC)CCCC(C)Nc1ccnc2cc(Cl)ccc12` (centres unmarked) [Chloroquine]: in assay [1] (setting [7]), the inhibition at 25 µM is above 75% and the inhibition at 50 µM is above 90%.

One may read the inhibition as the relative decrease from the control value, in per cent.
